What was measured:
Pseudomonas aeruginosa = test: microtitre plate test on sterile agar, growth inhibition of gram-negative bacteria; format: cell-based; conditions: gramnegativen Bakterien (z.B. Pseudomonas aeruginosa); Inkubationszeit 3 Tage, Temperatur 37°C
Description: (§1) Sowohl gegenüber gramnegativen Bakterien (z.B. Pseudomonas aeruginosa) als auch grampositiven Bakterien (z.B. Staphylococcus aureus) zeigen die beispielhaft genannten Borate eine hervorragende wachstumshemmende Wirkung, was experimentell durch einen sogenannten Mikrotiterplattentest auf sterilem Agar (Inkubationszeit 3 Tage, Temperatur 37°C) dokumentiert werden konnte.

Staphylococcus aureus = test: microtitre plate test on sterile agar, growth inhibition of gram-positive bacteria; format: cell-based; conditions: grampositiven Bakterien (z.B. Staphylococcus aureus); Inkubationszeit 3 Tage, Temperatur 37°C
Description: as §1

| SMILES | wachstumshemmende Wirkung (Pseudomonas aeruginosa) | wachstumshemmende Wirkung (Staphylococcus aureus) |
| --- | --- | --- |
| CC(C)=CCC/C(C)=C/COB(OC/C=C(\C)CCC=C(C)C)OC/C=C(\C)CCC=C(C)C [tris-Geranylborat] | antimikrobiellen Eigenschaften | antimikrobiellen Eigenschaften |
| CC(C)=CCC/C(C)=C\COB(OC/C=C(/C)CCC=C(C)C)OC/C=C(/C)CCC=C(C)C [tris-Nerylborat] | antimikrobiellen Eigenschaften | antimikrobiellen Eigenschaften |
| C=CC(C)(CCC=C(C)C)OB(OC(C)(C=C)CCC=C(C)C)OC(C)(C=C)CCC=C(C)C (centres unmarked) [tris-Linalylborat] | antimikrobiellen Eigenschaften | antimikrobiellen Eigenschaften |
| CC(CC=O)CCCC(C)(C)OB(OC(C)(C)CCCC(C)CC=O)OC(C)(C)CCCC(C)CC=O (centres unmarked) [tris-Hydroxycitronellalborat] | antimikrobiellen Eigenschaften | antimikrobiellen Eigenschaften |
| CC/C=C\CCOB(OCC/C=C\CC)OCC/C=C\CC [tris-(cis)-3-Hexenylborat] | antimikrobiellen Eigenschaften | antimikrobiellen Eigenschaften |
| c1ccc(CCOB(OCCc2ccccc2)OCCc2ccccc2)cc1 [tris-Phenylethylborat] | antimikrobiellen Eigenschaften | antimikrobiellen Eigenschaften |
| C=CCCCCCCCCCOB(OCCCCCCCCCC=C)OCCCCCCCCCC=C [tris-Undecenylborat] | antimikrobiellen Eigenschaften | antimikrobiellen Eigenschaften |
